From PMC9288506, “Compounds activating VCP D1 ATPase enhance both autophagic and proteasomal neurotoxic protein clearance” (Nature Communications, 2022)

Tests used:
Test in all cases: biochemical
Set-up in all cases: Thermo Fisher in vitro kinase panel, per cent inhibition of kinase activity at 10 uM
SGK (SGK1) = SGK (SGK1) (Homo sapiens, UniProt O00141)
Procedure: (§1) Kinase profiling of SMER28 and analogs SMER28 and analogs were tested at 10 µM in a panel of 123 kinases at ThermoFisher Scientific. Follow-up of selected kinases for SMER28 and analogs was also performed at ThermoFisher Scientific. Data are shown in Supplementary Data 2 and 3. […] An inhibition of PIK3C could induce autophagy, mediated by signaling through the AKT/mTOR axis[45].

RPS6KA1 (RSK1) = RPS6KA1 (RSK1) (Homo sapiens, UniProt Q15418)
Procedure: as §1

FGFR2 = FGFR2 (Homo sapiens, UniProt P21802)
FGFR2, sequence (P21802 whole entry): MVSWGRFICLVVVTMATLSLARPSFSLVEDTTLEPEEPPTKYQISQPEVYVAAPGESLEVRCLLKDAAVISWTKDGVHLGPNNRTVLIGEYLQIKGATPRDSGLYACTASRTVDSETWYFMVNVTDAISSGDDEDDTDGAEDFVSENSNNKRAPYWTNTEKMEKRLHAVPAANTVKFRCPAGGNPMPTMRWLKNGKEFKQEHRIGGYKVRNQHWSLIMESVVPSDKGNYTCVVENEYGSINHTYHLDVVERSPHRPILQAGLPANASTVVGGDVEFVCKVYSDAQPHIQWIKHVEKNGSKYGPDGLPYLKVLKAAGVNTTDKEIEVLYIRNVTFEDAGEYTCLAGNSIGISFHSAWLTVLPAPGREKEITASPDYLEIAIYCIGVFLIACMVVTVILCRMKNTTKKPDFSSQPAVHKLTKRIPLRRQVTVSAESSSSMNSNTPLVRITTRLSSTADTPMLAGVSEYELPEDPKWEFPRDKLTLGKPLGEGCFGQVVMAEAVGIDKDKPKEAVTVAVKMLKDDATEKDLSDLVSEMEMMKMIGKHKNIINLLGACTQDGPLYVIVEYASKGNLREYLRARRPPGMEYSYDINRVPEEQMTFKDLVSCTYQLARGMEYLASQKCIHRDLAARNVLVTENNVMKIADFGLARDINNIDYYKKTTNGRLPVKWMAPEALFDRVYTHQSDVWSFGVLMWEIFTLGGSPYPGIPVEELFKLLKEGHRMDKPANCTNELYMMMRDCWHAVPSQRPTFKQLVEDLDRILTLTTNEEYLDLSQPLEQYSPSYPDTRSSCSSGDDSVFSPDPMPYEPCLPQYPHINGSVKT
Procedure: as §1

NUAK1 (ARK5) = NUAK1 (ARK5) (Homo sapiens, UniProt O60285)
Procedure: as §1

ERBB4 (HER4) = ERBB4 (HER4) (Homo sapiens, UniProt Q15303)
Procedure: as §1

AKT2 (PKB beta) = AKT2 (PKB beta) (Homo sapiens, UniProt P31751)
Procedure: as §1

BLK = BLK (Homo sapiens, UniProt P51451)
BLK, sequence (P51451 whole entry): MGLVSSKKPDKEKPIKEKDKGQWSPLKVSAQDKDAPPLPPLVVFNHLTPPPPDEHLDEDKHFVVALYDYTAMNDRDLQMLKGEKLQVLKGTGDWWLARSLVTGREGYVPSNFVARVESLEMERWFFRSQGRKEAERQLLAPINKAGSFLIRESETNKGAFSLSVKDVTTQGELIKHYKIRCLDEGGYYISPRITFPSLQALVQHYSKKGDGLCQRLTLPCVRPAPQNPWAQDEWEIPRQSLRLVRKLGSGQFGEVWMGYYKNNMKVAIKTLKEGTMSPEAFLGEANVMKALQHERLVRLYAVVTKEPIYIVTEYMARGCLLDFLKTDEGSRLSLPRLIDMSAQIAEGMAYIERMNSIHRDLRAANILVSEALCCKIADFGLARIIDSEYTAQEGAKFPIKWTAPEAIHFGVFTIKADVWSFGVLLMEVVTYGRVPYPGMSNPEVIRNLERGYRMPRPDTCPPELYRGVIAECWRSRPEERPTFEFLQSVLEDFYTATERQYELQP
Procedure: as §1

PTK6 (Brk) = PTK6 (Brk) (Homo sapiens, UniProt Q13882)
Procedure: as §1

PAK2 (PAK65) = PAK2 (PAK65) (Homo sapiens, UniProt Q13177)
Procedure: as §1

[1] = target: PIK3CD/PIK3R1 (p110 delta/p85 alpha) (Homo sapiens, UniProt O00329)
Procedure: as §1

BRAF = BRAF (Homo sapiens, UniProt P15056)
Procedure: as §1

IRAK4 = IRAK4 (Homo sapiens, UniProt Q9NWZ3)
Procedure: as §1

CHEK1 (CHK1) = CHEK1 (CHK1) (Homo sapiens, UniProt O14757)
Procedure: as §1

[2] = target: PIK3CA/PIK3R1 (p110 alpha/p85 alpha) (Homo sapiens, UniProt P42336)
Procedure: as §1

ABL1 = ABL1 (Homo sapiens, UniProt P00519)
Procedure: as §1

FGFR3 = FGFR3 (Homo sapiens, UniProt P22607)
Procedure: as §1

DDR2 = DDR2 (Homo sapiens, UniProt Q16832)
Procedure: as §1

RET V804L = RET V804L (Homo sapiens, UniProt P07949, V804L)
Procedure: as §1

[3] = target: MAP3K7/MAP3K7IP1 (TAK1-TAB1) (Homo sapiens, UniProt O43318)
MAP3K7/MAP3K7IP1 (TAK1-TAB1), sequence (O43318 whole entry): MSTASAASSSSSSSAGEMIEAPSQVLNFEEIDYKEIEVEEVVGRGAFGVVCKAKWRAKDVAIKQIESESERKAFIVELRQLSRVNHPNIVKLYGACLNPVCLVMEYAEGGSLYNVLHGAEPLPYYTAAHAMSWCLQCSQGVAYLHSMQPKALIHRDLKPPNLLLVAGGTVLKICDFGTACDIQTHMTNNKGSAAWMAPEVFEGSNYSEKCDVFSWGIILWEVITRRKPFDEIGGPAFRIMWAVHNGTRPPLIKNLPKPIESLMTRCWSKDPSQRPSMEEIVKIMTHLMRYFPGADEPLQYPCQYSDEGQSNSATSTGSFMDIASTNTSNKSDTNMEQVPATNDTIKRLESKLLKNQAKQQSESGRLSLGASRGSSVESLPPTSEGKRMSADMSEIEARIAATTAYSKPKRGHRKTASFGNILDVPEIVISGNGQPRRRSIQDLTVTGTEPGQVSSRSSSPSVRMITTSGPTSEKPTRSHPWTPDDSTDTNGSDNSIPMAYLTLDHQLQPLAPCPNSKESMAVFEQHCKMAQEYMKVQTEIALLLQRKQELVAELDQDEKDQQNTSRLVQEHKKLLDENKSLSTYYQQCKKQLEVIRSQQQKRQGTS
MAP3K7/MAP3K7IP1 (TAK1-TAB1), sequence (Q15750 whole entry partner): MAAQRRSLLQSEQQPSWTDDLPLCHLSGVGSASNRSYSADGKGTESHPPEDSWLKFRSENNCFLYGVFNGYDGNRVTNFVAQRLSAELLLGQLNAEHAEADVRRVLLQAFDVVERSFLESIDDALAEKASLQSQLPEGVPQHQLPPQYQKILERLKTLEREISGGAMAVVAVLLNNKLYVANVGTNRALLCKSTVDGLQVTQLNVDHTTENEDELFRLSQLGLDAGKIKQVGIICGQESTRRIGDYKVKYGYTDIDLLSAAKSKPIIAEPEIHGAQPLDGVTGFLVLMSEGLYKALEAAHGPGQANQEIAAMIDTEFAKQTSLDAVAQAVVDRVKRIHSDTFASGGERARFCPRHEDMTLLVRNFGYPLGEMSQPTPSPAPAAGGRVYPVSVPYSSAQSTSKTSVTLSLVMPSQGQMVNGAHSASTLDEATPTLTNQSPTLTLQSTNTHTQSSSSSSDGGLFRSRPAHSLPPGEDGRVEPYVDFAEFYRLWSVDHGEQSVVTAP
Procedure: as §1

PAK1 = PAK1 (Homo sapiens, UniProt Q13153)
Procedure: as §1

PAK4 = PAK4 (Homo sapiens, UniProt O96013)
PAK4, sequence (O96013 whole entry): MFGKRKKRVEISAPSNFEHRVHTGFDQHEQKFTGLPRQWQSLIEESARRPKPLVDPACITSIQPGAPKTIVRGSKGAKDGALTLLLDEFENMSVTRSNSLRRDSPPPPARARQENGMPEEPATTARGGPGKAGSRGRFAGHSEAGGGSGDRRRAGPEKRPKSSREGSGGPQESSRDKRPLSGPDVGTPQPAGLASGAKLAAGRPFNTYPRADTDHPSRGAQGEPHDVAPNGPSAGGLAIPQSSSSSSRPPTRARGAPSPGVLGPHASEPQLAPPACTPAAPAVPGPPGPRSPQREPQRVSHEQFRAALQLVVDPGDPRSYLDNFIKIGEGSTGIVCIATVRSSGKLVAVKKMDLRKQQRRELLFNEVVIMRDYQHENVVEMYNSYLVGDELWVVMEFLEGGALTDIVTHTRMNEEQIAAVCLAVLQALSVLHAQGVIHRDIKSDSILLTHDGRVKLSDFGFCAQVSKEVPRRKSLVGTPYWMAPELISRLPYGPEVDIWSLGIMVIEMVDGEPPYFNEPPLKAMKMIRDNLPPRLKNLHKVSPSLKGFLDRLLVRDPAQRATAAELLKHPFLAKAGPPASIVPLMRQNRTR
Procedure: as §1

CSNK2A2 (CK2 alpha 2) = CSNK2A2 (CK2 alpha 2) (Homo sapiens, UniProt P19784)
CSNK2A2 (CK2 alpha 2), sequence (P19784 whole entry): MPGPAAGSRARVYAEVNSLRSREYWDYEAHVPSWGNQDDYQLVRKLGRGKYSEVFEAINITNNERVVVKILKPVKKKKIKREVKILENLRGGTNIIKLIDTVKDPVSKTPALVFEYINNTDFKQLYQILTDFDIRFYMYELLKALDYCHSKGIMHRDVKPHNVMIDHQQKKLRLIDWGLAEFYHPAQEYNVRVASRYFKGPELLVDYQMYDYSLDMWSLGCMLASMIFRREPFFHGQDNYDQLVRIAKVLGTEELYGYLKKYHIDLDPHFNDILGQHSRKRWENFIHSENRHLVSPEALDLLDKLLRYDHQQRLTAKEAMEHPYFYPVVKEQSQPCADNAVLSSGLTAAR
Procedure: as §1

CAMK1 (CaMK1) = CAMK1 (CaMK1) (Homo sapiens, UniProt Q14012)
Procedure: as §1

PAK7 (KIAA1264) = target: T1, PAK7 (KIAA1264) (Homo sapiens, UniProt Q9P286)
T1 construct: gene PAK5
Procedure: as §1

PIK3CG (p110 gamma) = PIK3CG (p110 gamma) (Homo sapiens, UniProt P48736)
PIK3CG (p110 gamma), sequence (P48736 whole entry): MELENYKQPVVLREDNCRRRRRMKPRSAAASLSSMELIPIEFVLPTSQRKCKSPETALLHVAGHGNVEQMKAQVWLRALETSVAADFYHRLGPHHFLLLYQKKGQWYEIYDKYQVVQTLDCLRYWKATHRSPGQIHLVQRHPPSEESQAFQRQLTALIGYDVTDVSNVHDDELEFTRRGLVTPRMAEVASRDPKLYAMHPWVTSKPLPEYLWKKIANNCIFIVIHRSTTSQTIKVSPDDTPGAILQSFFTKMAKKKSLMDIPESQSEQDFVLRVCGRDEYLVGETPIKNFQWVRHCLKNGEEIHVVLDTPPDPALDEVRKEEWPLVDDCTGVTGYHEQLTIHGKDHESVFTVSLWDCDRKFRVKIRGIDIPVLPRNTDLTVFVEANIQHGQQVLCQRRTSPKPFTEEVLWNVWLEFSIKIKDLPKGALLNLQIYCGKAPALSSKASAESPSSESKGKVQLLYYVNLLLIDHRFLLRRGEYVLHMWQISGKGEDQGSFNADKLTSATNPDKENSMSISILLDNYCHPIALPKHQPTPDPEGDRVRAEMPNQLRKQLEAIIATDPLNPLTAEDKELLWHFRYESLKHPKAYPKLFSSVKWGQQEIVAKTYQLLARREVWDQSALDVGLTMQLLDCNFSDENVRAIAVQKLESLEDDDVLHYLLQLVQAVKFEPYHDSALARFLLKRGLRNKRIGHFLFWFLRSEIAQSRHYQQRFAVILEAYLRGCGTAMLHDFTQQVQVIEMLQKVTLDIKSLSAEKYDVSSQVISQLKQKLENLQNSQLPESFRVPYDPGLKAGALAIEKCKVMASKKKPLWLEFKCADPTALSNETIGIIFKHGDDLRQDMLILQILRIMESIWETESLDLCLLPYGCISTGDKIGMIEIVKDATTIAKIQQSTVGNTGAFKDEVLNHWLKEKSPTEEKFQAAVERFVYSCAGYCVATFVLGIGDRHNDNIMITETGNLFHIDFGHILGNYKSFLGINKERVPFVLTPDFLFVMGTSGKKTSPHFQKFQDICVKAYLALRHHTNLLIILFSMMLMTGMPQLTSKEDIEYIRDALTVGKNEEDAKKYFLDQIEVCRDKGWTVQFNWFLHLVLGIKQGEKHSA
Procedure: as §1

SGK (SGK1), sequence (O00141 whole entry): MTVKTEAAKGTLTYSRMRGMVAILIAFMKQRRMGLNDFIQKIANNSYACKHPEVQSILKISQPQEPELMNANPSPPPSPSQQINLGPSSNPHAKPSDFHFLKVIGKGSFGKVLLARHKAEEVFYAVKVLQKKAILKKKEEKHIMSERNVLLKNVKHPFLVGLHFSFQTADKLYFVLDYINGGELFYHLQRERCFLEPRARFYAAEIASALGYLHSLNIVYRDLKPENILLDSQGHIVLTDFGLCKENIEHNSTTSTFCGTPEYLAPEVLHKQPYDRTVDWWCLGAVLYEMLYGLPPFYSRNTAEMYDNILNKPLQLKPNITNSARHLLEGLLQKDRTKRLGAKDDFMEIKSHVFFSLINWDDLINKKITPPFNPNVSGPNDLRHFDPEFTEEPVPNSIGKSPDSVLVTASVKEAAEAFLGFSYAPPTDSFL

Work on `C=CCNc1ncnc2ccc(Br)cc12` [SMER28] yielded an inhibition at 10 µM (SGK (SGK1)) of 15%, an inhibition at 10 µM (RPS6KA1 (RSK1)) of 21% and an inhibition at 10 µM (FGFR2) of 19%. For the same compound, the inhibition at 10 µM (NUAK1 (ARK5)) was 40%, the inhibition at 10 µM (ERBB4 (HER4)) was 10% and the inhibition at 10 µM (AKT2 (PKB beta)) was -8%. It also gave an inhibition at 10 µM (BLK) of 4%, an inhibition at 10 µM (PTK6 (Brk)) of 0% and an inhibition at 10 µM (PAK2 (PAK65)) of 9%. For the same compound, the inhibition at 10 µM [1] was 78%, the inhibition at 10 µM (BRAF) was 13% and the inhibition at 10 µM (IRAK4) was 68%. The inhibition at 10 µM (CHEK1 (CHK1)) was -8%, the inhibition at 10 µM [2] was 78% and the inhibition at 10 µM (ABL1) was 11%. For the same compound, the inhibition at 10 µM (FGFR3) was -7%, the inhibition at 10 µM (DDR2) was 0% and the inhibition at 10 µM (RET V804L) was 30%. It also gave an inhibition at 10 µM [3] of 34%, an inhibition at 10 µM (PAK1) of 0% and an inhibition at 10 µM (PAK4) of 0%. The inhibition at 10 µM (CSNK2A2 (CK2 alpha 2)) was 10%, the inhibition at 10 µM (CAMK1 (CaMK1)) was 13% and the inhibition at 10 µM (PAK7 (KIAA1264)) was 7%. For the same compound, the inhibition at 10 µM (PIK3CG (p110 gamma)) was 65%.
